Several values for one entry are separate records, joined by “and”; a condition that tells them apart may be missing. Equal entries are not always repeated.
Legend:
[1] = target: T1, hMOR (Homo sapiens, UniProt P35372); test: cell-based; settings: read-out: Emax hMOR
T1 construct: expressed in transfected cells; plasmid a gift from Dr. Nevin Lambert

[2] = target: T2, mKOR (Mus musculus, UniProt P33534); test: [125I]BNtxA radioligand competition binding, mouse KOR
T2 construct: expressed in transfected cells; membranes

[3] = target: hKOR (Homo sapiens, UniProt P41145); test: CAMYEL BRET cAMP agonist assay at hKOR; type: cell-based; settings: individual replicates, Supplementary Figure 8A source data
[4] = target: T3, mMOR (Mus musculus, UniProt P42866); test: BRET-based Nb33 recruitment assay at mMOR; type: cell-based; settings: for Nb33 BRET assay at mMOR, response: single replicates, source data Fig 7a, listed as 7-OH Mitragynine
T3 construct: signal peptide (heterologous, not specified) (N); expressed in transfected cells; pcDNA3.1(+) construct made in house

[5] = target: T1, hMOR; test: CAMYEL BRET cAMP agonist assay at hMOR; type: cell-based; settings: for cAMP %: hMOR, single replicates, source data Fig 6c
[6] = target: T4, mDOR (Mus musculus, UniProt P32300); test: [125I]BNtxA radioligand competition binding, mouse DOR
T4 construct: expressed in transfected cells

[7] = target: hDOR (Homo sapiens, UniProt P41143); test: CAMYEL BRET cAMP agonist assay at hDOR; type: cell-based; settings: for Agonist activity of 7OH analogs at hDOR: single replicate values, Supplementary Figure 7A, listed as 7-OH-Mitragynine

Compound: CC[C@@H]1CN2CC[C@@]3(O)C(=Nc4cccc(OC)c43)[C@@H]2C[C@@H]1/C(=C\OC)C(=O)OC [7OH, 7-Hydroxymitragynine, reference compound]
- Emax [1]: ~22%
- Ki [2]: 119 ± 2.1 nM
- Agonist activity of 7OH analogs at hKOR ([3]; Log [drug](M) -5): 25.1107 and 37.2516 and 25.09 and 18.6326 and 7.697 and 7.056 and 12.3573 and 15.4119 and 15.9917
- Agonist activity of 7OH analogs at hKOR ([3]; Log [drug](M) -6): 26.3842 and 27.9158 and 17.2556 and 19.1124 and 15.0208 and 6.652 and 13.1771 and 3.299 and 8.814
- Agonist activity of 7OH analogs at hKOR ([3]; Log [drug](M) -7): 10.6234 and 4.588 and 26.8644 and 8.68 and -0.2355 and 14.6509 and 3.557 and -6.963 and -8.284
- Agonist activity of 7OH analogs at hKOR ([3]; Log [drug](M) -8): 5.978 and -10.4494 and 7.122 and 8.973 and 3.679 and 0.5669 and 3.537 and -8.354 and -5.217
- Agonist activity of 7OH analogs at hKOR ([3]; Log [drug](M) -9): 4.358 and -4.206 and -18.6896 and -3.311 and 1.614 and -2.537 and 1.131 and 5.305 and 46.2002
- Agonist activity of 7OH analogs at hKOR ([3]; Log [drug](M) -10): -9.33 and 0.6018 and -2.152 and 0.113 and -1.397 and 4.8046 and -5.84 and -6.29 and 4.4418
- Agonist activity of 7OH analogs at hKOR ([3]; Log [drug](M) -11): 2.533 and -16.0954 and -7.281 and -0.5606 and -1.386 and 5.188 and 3.6558 and -6.195 and -4.675
- Agonist activity of 7OH analogs at hKOR ([3]; Log [drug](M) -13): -2.907 and -1.906 and 4.813 and 2.257 and -10 and 7.743 and -0.9804 and -0.456 and 1.436
- EC50 [4]: 15 nM
- Nb33 BRET assay at mMOR, response ([4]; Log[drug] (M) -5): 31.8558 and 13.6622 and 18.9084 and 19.9525 and 1.3915 and 5.568 and 5.853 and 2.0473 and 9.468
- Nb33 BRET assay at mMOR, response ([4]; Log[drug] (M) -6): 11.2448 and 12.7863 and 8.673 and 7.158 and -2.301 and 5.3956 and -5.256 and 15.8192 and 11.2218
- Nb33 BRET assay at mMOR, response ([4]; Log[drug] (M) -7): 34.9577 and 9.119 and 11.9292 and 16.603 and 7.256 and -0.02541 and 7.483 and 5.463 and 3.637
- Nb33 BRET assay at mMOR, response ([4]; Log[drug] (M) -8): 18.0513 and 18.0293 and 14.3718 and -0.3281 and -6.115 and -12.1072 and 6.0021 and 5.2851 and -7.797
- Nb33 BRET assay at mMOR, response ([4]; Log[drug] (M) -9): -7.335 and -6.503 and -1.285 and -14.3312 and -4.26 and -7.41 and 7.337 and -0.23 and -1.333
- Nb33 BRET assay at mMOR, response ([4]; Log[drug] (M) -10): -7.162 and 6.7364 and 17.2382 and -2.279 and -1.22 and 15.6435 and -10.3312 and 4.394 and -8.638
- Nb33 BRET assay at mMOR, response ([4]; Log[drug] (M) -11): 8.105 and -10.4588 and 2.354 and -4.559 and 5.739 and -1.18 and -4.753 and 4.633 and 0.1195
- Emax mMOR ([4]; Nb33 BRET, relative to DAMGO): ~ 20%
- Emax ([4]; read-out: Emax mMOR, Nb33 BRET, relative to DAMGO): ~14%
- Emax [5]: 96%
- cAMP % ([5]; Log[drug] (M) -5): 88.4213% and 90.605% and 95.9962% and 96.6598% and 92.1499% and 89.6322% and 104.97% and 106.65% and 107.127%
- cAMP % ([5]; Log[drug] (M) -6): 85.9913% and 88.2699% and 100.077% and 95.6224% and 98.6028% and 95.7246% and 101.519% and 93.2699% and 100.898%
- cAMP % ([5]; Log[drug] (M) -7): 74.1823% and 79.6011% and 86.6364% and 71.3053% and 75.9463% and 78.9671% and 86.5888% and 87.8073% and 87.9307%
- cAMP % ([5]; Log[drug] (M) -8): 47.9539% and 40.673% and 45.9228% and 28.5173% and 37.309% and 37.8989% and 36.8098% and 40.2437% and 43.4509%
- cAMP % ([5]; Log[drug] (M) -9): -5.159% and -0.2818% and 15.9197% and 2.836% and 1.425% and -4.261% and 10.2218% and -0.8382% and 19.3398%
- cAMP % ([5]; Log[drug] (M) -10): 2.406% and -6.901% and 4.4945% and -1.371% and 5.724% and -0.06095% and -1.689% and 0.384% and 1.305%
- cAMP % ([5]; Log[drug] (M) -11): 10.0741% and 2.867% and -1.276% and 14.2755% and -12.2251% and 5.789% and 12.061% and -4.689% and 0.8824%
- cAMP % ([5]; Log[drug] (M) -13, cAMP inhibition as % of DAMGO): 3.998% and -9.01% and 9.508% and 14.9262% and 7.334% and 14.594% and 2.431% and 9.511% and 1.874%
- Ki [6]: 88.5 ± 9.9 nM
- EC50 [7]: 99.9 nM
- Agonist activity of 7OH analogs at hDOR ([7]; Log[drug] (M) -5): 59.4902 and 54.7394 and 48.113 and 45.4731 and 42.3531 and 41.8085 and 33.7355 and 48.8189 and 36.1755
- Agonist activity of 7OH analogs at hDOR ([7]; Log[drug] (M) -6): 47.0072 and 54.0661 and 57.5431 and 39.2612 and 45.3193 and 38.3255 and 32.249 and 29.9213 and 37.5943
- Agonist activity of 7OH analogs at hDOR ([7]; Log[drug] (M) -7): 27.5943 and 29.9093 and 13.7827 and 13.3703 and 19.5028 and 21.8057 and 32.1543 and 37.3674 and 42.4632
- Agonist activity of 7OH analogs at hDOR ([7]; Log[drug] (M) -8): 27.0326 and 26.8622 and 6.318 and -2.952 and 5.202 and 3.255 and 18.5072 and 16.8026 and 16.758
